According to US20170354148A1, “SAFENED HERBICIDAL COMPOSITIONS CONTAINING HALAUXIFEN AND METHODS OF USE THEREOF IN BRASSICA SPECIES” (Dow AgroSciences LLC, priority 2016, published 2017):

Legend:
[1] = system: kale/Chinese kale (Brassica alboglabra, BRSAG); test: Example 5 greenhouse trials, postemergence visual injury; conditions: for % Visual Injury Obs / Visual Injury Obs: BRSAG
[2] = system: rutabaga (Brassica napus var. napobrassica, BRSNA); test: as above; conditions: for % Visual Injury Obs / Visual Injury Obs: BRSNA
[3] = system: Nexera™ canola (Brassica napus, BRSNN-NEX); test: as above; conditions: for % Visual Injury Obs / Visual Injury Obs: BRSNN-NEX
[4] = system: winter oilseed rape (Brassica napus, BRSNW); test: as above; conditions: for % Visual Injury Obs / Visual Injury Obs: BRSNW
[5] = system: turnip or Polish canola (Brassica rapa, BRSRR); test: as above; conditions: for % Visual Injury Obs / Visual Injury Obs: BRSRR
[6] = system: Roundup Ready® canola (Brassica napus, RR-BRSNN); test: as above; conditions: for % Visual Injury Obs / Visual Injury Obs: RR-BRSNN
[7] = system: Spring Argentine canola (Brassica napus, BRSNS); test: Example 3 field trials (Canada), postemergence crop safety, visual phytotoxicity; conditions: alone or mixed

O=C(O)c1c(Cl)ccc2cc(Cl)cnc12 [Quinclorac, 3,7-dichloro-8-quinolinecarboxylic acid]
% Visual Injury Obs ([1]; 50 g ai/ha alone, 20-22 d): 0%
% Visual Injury Obs ([1]; 100 g ai/ha alone, 20-22 d): 0%
% Visual Injury Obs ([1]; 200 g ai/ha alone, 20-22 d): 0%
% Visual Injury Obs ([1]; quinclorac 50 g ai/ha): 0%
Visual Injury Obs ([1]; quinclorac 50 g ai/ha): 0%
% Visual Injury Obs ([1]; quinclorac 100 g ai/ha): 0%
Visual Injury Obs ([1]; quinclorac 100 g ai/ha): 0%
% Visual Injury Obs ([1]; quinclorac 200 g ai/ha): 0%
Visual Injury Obs ([1]; quinclorac 200 g ai/ha): 0%
% Visual Injury Obs ([2]; 50 g ai/ha alone, 20-22 d): 0%
% Visual Injury Obs ([2]; 100 g ai/ha alone, 20-22 d): 0%
% Visual Injury Obs ([2]; 200 g ai/ha alone, 20-22 d): 0%
% Visual Injury Obs ([2]; quinclorac 50 g ai/ha): 0%
Visual Injury Obs ([2]; quinclorac 50 g ai/ha): 0%
% Visual Injury Obs ([2]; quinclorac 100 g ai/ha): 0%
Visual Injury Obs ([2]; quinclorac 100 g ai/ha): 0%
% Visual Injury Obs ([2]; quinclorac 200 g ai/ha): 0%
Visual Injury Obs ([2]; quinclorac 200 g ai/ha): 0%
% Visual Injury Obs ([3]; 50 g ai/ha alone, 20-22 d): 0%
% Visual Injury Obs ([3]; 100 g ai/ha alone, 20-22 d): 0%
% Visual Injury Obs ([3]; 200 g ai/ha alone, 20-22 d): 0%
% Visual Injury Obs ([3]; quinclorac 50 g ai/ha): 0%
Visual Injury Obs ([3]; quinclorac 50 g ai/ha): 0%
% Visual Injury Obs ([3]; quinclorac 100 g ai/ha): 0%
Visual Injury Obs ([3]; quinclorac 100 g ai/ha): 0%
% Visual Injury Obs ([3]; quinclorac 200 g ai/ha): 0%
Visual Injury Obs ([3]; quinclorac 200 g ai/ha): 0%
% Visual Injury Obs ([4]; 50 g ai/ha alone, 20-22 d): 0%
% Visual Injury Obs ([4]; 100 g ai/ha alone, 20-22 d): 0%
% Visual Injury Obs ([4]; 200 g ai/ha alone, 20-22 d): 0%
% Visual Injury Obs ([4]; quinclorac 50 g ai/ha): 0%
Visual Injury Obs ([4]; quinclorac 50 g ai/ha): 0%
% Visual Injury Obs ([4]; quinclorac 100 g ai/ha): 0%
Visual Injury Obs ([4]; quinclorac 100 g ai/ha): 0%
% Visual Injury Obs ([4]; quinclorac 200 g ai/ha): 0%
Visual Injury Obs ([4]; quinclorac 200 g ai/ha): 0%
% Visual Injury Obs ([5]; 50 g ai/ha alone, 20-22 d): 0%
% Visual Injury Obs ([5]; 100 g ai/ha alone, 20-22 d): 0%
% Visual Injury Obs ([5]; 200 g ai/ha alone, 20-22 d): 0%
% Visual Injury Obs ([5]; quinclorac 50 g ai/ha): 0%
Visual Injury Obs ([5]; quinclorac 50 g ai/ha): 0%
% Visual Injury Obs ([5]; quinclorac 100 g ai/ha): 0%
Visual Injury Obs ([5]; quinclorac 100 g ai/ha): 0%
% Visual Injury Obs ([5]; quinclorac 200 g ai/ha): 0%
Visual Injury Obs ([5]; quinclorac 200 g ai/ha): 0%
% Visual Injury Obs ([6]; 50 g ai/ha alone, 20-22 d): 0%
% Visual Injury Obs ([6]; 100 g ai/ha alone, 20-22 d): 0%
% Visual Injury Obs ([6]; 200 g ai/ha alone, 20-22 d): 0%
% Visual Injury Obs ([6]; quinclorac 50 g ai/ha): 0%
Visual Injury Obs ([6]; quinclorac 50 g ai/ha): 0%
% Visual Injury Obs ([6]; quinclorac 100 g ai/ha): 0%
Visual Injury Obs ([6]; quinclorac 100 g ai/ha): 0%
% Visual Injury Obs ([6]; quinclorac 200 g ai/ha): 0%
Visual Injury Obs ([6]; quinclorac 200 g ai/ha): 0%
Mean % Visual Injury ([7]; Table 14, 7DAAA, halauxifen-methyl 5, quinclorac 101 g ae/ha): 0.8%
Mean % Visual Injury ([7]; Table 14, 15DAAA, halauxifen-methyl 5, quinclorac 101 g ae/ha): 1.0%
Mean % Visual Injury ([7]; Table 14, 27DAAA, halauxifen-methyl 5, quinclorac 101 g ae/ha): 3.0%
Mean % Visual Injury ([7]; Table 14, 57DAAA, halauxifen-methyl 5, quinclorac 101 g ae/ha): 1.5%
Mean % Visual Injury ([7]; Table 15, 7DAAA, halauxifen-methyl 5, clopyralid-olamine 150, quinclorac 101 g ae/ha): 0.8%
Mean % Visual Injury ([7]; Table 15, 15DAAA, halauxifen-methyl 5, clopyralid-olamine 150, quinclorac 101 g ae/ha): 1.0%
Mean % Visual Injury ([7]; Table 15, 27DAAA, halauxifen-methyl 5, clopyralid-olamine 150, quinclorac 101 g ae/ha): 3.0%
Mean % Visual Injury ([7]; Table 15, 57DAAA, halauxifen-methyl 5, clopyralid-olamine 150, quinclorac 101 g ae/ha): 1.5%
Mean % Visual Injury ([7]; Table 21, 8DAAA, halauxifen-methyl 5, quinclorac 101 g ae/ha): 3.5%
Mean % Visual Injury ([7]; Table 21, 14DAAA, halauxifen-methyl 5, quinclorac 101 g ae/ha): 1.0%
Mean % Visual Injury ([7]; Table 21, 40DAAA, halauxifen-methyl 5, quinclorac 101 g ae/ha): 0.5%
Mean % Visual Injury ([7]; Table 21, 81DAAA, halauxifen-methyl 5, quinclorac 101 g ae/ha): 0.0%
Mean % Visual Injury ([7]; Table 22, 8DAAA, halauxifen-methyl 5, clopyralid-olamine 150, quinclorac 101 g ae/ha): 3.5%
Mean % Visual Injury ([7]; Table 22, 14DAAA, halauxifen-methyl 5, clopyralid-olamine 150, quinclorac 101 g ae/ha): 1.0%
Mean % Visual Injury ([7]; Table 22, 40DAAA, halauxifen-methyl 5, clopyralid-olamine 150, quinclorac 101 g ae/ha): 0.5%
Mean % Visual Injury ([7]; Table 22, 81DAAA, halauxifen-methyl 5, clopyralid-olamine 150, quinclorac 101 g ae/ha): 0.0%
Mean % Visual Injury ([7]; Table 27, 7DAAA, halauxifen-methyl 5, quinclorac 101 g ae/ha): 2.3%
Mean % Visual Injury ([7]; Table 27, 17DAAA, halauxifen-methyl 5, quinclorac 101 g ae/ha): 1.8%
Mean % Visual Injury ([7]; Table 27, 32DAAA, halauxifen-methyl 5, quinclorac 101 g ae/ha): 5.3%
Mean % Visual Injury ([7]; Table 27, 49DAAA, halauxifen-methyl 5, quinclorac 101 g ae/ha): 0.5%
Mean % Visual Injury ([7]; Table 28, 7DAAA, halauxifen-methyl 5, clopyralid-olamine 150, quinclorac 101 g ae/ha): 2.3%
Mean % Visual Injury ([7]; Table 28, 17DAAA, halauxifen-methyl 5, clopyralid-olamine 150, quinclorac 101 g ae/ha): 1.8%
Mean % Visual Injury ([7]; Table 28, 32DAAA, halauxifen-methyl 5, clopyralid-olamine 150, quinclorac 101 g ae/ha): 5.3%
Mean % Visual Injury ([7]; Table 28, 49DAAA, halauxifen-methyl 5, clopyralid-olamine 150, quinclorac 101 g ae/ha): 0.5%

CCOC(=O)C1=NN(c2ccc(Cl)cc2Cl)C(C)(C(=O)OCC)C1 (racemic) [Mefenpyr-diethyl, diethyl (RS)-1-(2,4-dichlorophenyl)-5-methyl-2-pyrazoline-3,5-dicarboxylate]
Percent (%) Visual Injury BRSAG Obs ([1]; safener alone 5 g ai/ha): 0%
Percent (%) Visual Injury BRSAG Obs ([1]; safener alone 10 g ai/ha): 0%
Percent (%) Visual Injury BRSAG Obs ([1]; safener alone 20 g ai/ha): 0%
Percent (%) Visual Injury BRSAG Obs ([1]; safener alone 40 g ai/ha): 0%
Percent (%) Visual Injury BRSNA Obs ([2]; safener alone 5 g ai/ha): 0%
Percent (%) Visual Injury BRSNA Obs ([2]; safener alone 10 g ai/ha): 0%
Percent (%) Visual Injury BRSNA Obs ([2]; safener alone 20 g ai/ha): 0%
Percent (%) Visual Injury BRSNA Obs ([2]; safener alone 40 g ai/ha): 0%
Percent (%) Visual Injury BRSNN-NEX Obs ([3]; safener alone 5 g ai/ha): 0%
Percent (%) Visual Injury BRSNN-NEX Obs ([3]; safener alone 10 g ai/ha): 0%
Percent (%) Visual Injury BRSNN-NEX Obs ([3]; safener alone 20 g ai/ha): 0%
Percent (%) Visual Injury BRSNN-NEX Obs ([3]; safener alone 40 g ai/ha): 0%
Percent (%) Visual Injury BRSNW Obs ([4]; safener alone 5 g ai/ha): 0%
Percent (%) Visual Injury BRSNW Obs ([4]; safener alone 10 g ai/ha): 0%
Percent (%) Visual Injury BRSNW Obs ([4]; safener alone 20 g ai/ha): 0%
Percent (%) Visual Injury BRSNW Obs ([4]; safener alone 40 g ai/ha): 0%
Percent (%) Visual Injury BRSRR Obs ([5]; safener alone 5 g ai/ha): 0%
Percent (%) Visual Injury BRSRR Obs ([5]; safener alone 10 g ai/ha): 0%
Percent (%) Visual Injury BRSRR Obs ([5]; safener alone 20 g ai/ha): 0%
Percent (%) Visual Injury BRSRR Obs ([5]; safener alone 40 g ai/ha): 0%
Percent (%) Visual Injury RR-BRSNN Obs ([6]; safener alone 5 g ai/ha): 0%
Percent (%) Visual Injury RR-BRSNN Obs ([6]; safener alone 10 g ai/ha): 0%
Percent (%) Visual Injury RR-BRSNN Obs ([6]; safener alone 20 g ai/ha): 0%
Percent (%) Visual Injury RR-BRSNN Obs ([6]; safener alone 40 g ai/ha): 0%
